Test system: reconstituted Human Corneal Epithelium (HCE)
Assay: Preliminary cytotoxicity: modified MTT viability test on reconstituted HCE
Assay type: cell-based
Conditions: for MTT: Cellular viability (%): relative to negative control
Protocol: An initial study on human corneal epithelium (HCE) was conducted to check the cytotoxicity of a selection of tear substitutes in order to further assess their protection against superficial corneal epithelium oxidative stress damages induced by UVA+B light (290-400 nm).
The preliminary cytotoxicity was performed after 4 h acute exposure and after 8 h exposure (repeated twice a day with the final readout the day after; 0.015 J/cm^2) to tear substitutes using 2 assays: MTT test and TUNEL assay.
The preliminary cytotoxicity was tested in vitro for the following tear substitutes: • Composition according to Example I • Visu XL (market reference containing 0.1% Coenzyme Q10, 0.1% cross-linked hyaluronic acid (HA), 0.5% Vitamin E TPGS; pH 6.9) on the HCE model compared to Benzalkonium Chloride (BAK) 0.1% solution (positive control) and saline solution (NaCl 0.9%; negative control).
An EPISKIN reconstituted Human Corneal Epithelium (HCE) of 0.5 cm^2 was used for the evaluation. Epithelial human Immortalized cells (HICEC) were deposed on a polycarbonate filter and cultured at the air-liquid interface for 5 days in a chemically defined medium in order to form a structured epithelium. The inserts containing the tissues at day 5 (thickness: 55 μm; 5.5 cell layers) were shipped at room temperature in a multi-well plate filled with an agarose nutrient solution in which they were embedded.
The HCEs were placed in 6 well plates with 1 mL maintenance medium overnight in incubator CO2 at 37° C. and 90% humidity. The tissues were then used the day after, following acute 4 h exposure and 8 h repeated exposure and overnight protocol. […]
Two exposure protocols were carried on: • acute exposure protocol (4 h): 4 h exposure followed by tissues rinsing • repeated exposure and overnight protocol (8 h+overnight): twice daily exposure, with at least 4 hours between the two treatments and readout after overnight incubation. […]
The Accuracy of the spectro-photometrical measurements are in the range between 0 and 2 OD: <+/−(1%+10 mOD). The Raw data of OD are directly recorded in the Microplate autoreader (TECAN INFINITE M-200) further processed by Software Magellan 6.5.
The mean of blank OD has been subtracted to every single OD value. The viability of each biological replicate has been calculated dividing the respective OD mean for the optical density average of the negative control (NC) Biological Replicates. The viability % mean of tissues treated with the same substance has been calculated. […]
Test substance meets the acceptance criteria if the Standard Deviation value (SD) of the cell viability % (expressed as percentage compared to NC) between the 2 tissue replicates is <18%.

## Benzalkonium Chloride [BAK 0.1%]
4 H acute exposure
  MTT: Cellular viability (%): 9.98%
8 H+ OVERNIGHT repeated exposure
  MTT: Cellular viability (%): 0.95%
4 h acute exposure
  Cytotoxicity by MTT test (in words): severe cytotoxicity
8 h followed by overnight incubation, cut-off 60% cell viability
  Cytotoxicity by MTT test (in words): severe cytotoxicity

— patent US20250325497A1, “OPHTHALMIC COMPOSITION COMPRISING RESVERATROL FOR TREATING DRY EYE SYNDROME” (Laboratoires THEA, priority 2022, published 2025)
